Values quoted from earlier work as cited in patent US10988420B2, “Nanoparticles of layered double hydroxides containing non-polar compounds of plant origin, and method for the separation and selective release of said compounds” (UNIVERSIDAD DE GUADALAJARA, priority 2015, dated 2021).

Settings: lycopene not encapsulated; prior art (Meléndez-Martinez 2004)

temperature at which lycopene is decomposed: 100-150 °C
Compound: CC(C)=CCC/C(C)=C/C=C/C(C)=C/C=C/C(C)=C/C=C/C=C(C)/C=C/C=C(C)/C=C/C=C(\C)CCC=C(C)C [lycopene]
